Measurements: publication PMC9380671, “Development of spiro-3-indolin-2-one containing compounds of antiproliferative and anti-SARS-CoV-2 properties” (Scientific Reports, 2022)
Where two headings read alike, the source gives them in different places.

Assays:
[1] = tested on: SARS-CoV-2 (hCoV-19/Egypt/NRC-03/2020); assay: Vero-E6 cell viral infection model, anti-SARS-CoV-2 IC50 (CPE, crystal violet); type: cell-based; conditions: for IC50: Severe acute respiratory syndrome coronavirus 2, Vero C1008; for SI = CC50/IC50: Vero-E6, SARS-CoV-2
[2] = tested on: MCF7 (breast cancer cell line); assay: Annexin V-FITC apoptosis/necrosis studies; type: cell-based, human; conditions: MCF7, compound at its MTT IC50
Text: It is also notable that both the tested compounds increase the apoptosis of the tested cancer cells. Moreover, the total amount of apoptosis for the tested cell line is higher for compound 6m than that for 6l (total number of apoptosis = 38.41, 42.55 for compounds 6l and 6m, respectively). […] On the other hand, necrosis observed for compound 6m is relatively higher than that of compound 6l (necrosis = 3.01, 3.96 for compounds 6l and 6m, respectively). […] These observations agree with the antiproliferation properties observed through MTT assay (Table 3, Fig. 8).
Cell cycle studies for the most promising agents synthesized (6l and 6m) against MCF7 (breast) cancer call were conducted by the standard technique. The Cells were suspended in DMEM medium in addition to 1% antibiotic–antimycotic mixture (10000 μg ml^-1 potassium penicillin, 10000 μg ml^-1 streptomycin sulfate and 25 μg ml^-1 amphotericin B), 10% fetal bovine serum and 1% L-glutamine at 37 °C, under 5% CO2 and 95% humidity. Cells were seeded at concentration of 30000 cells per well in fresh complete growth medium in 96-well tissue culture microtiter plates for 24 h. Media was aspirated, fresh complete medium was added and cells were incubated with the IC50 concentration of the tested compounds which determined previously in the MTT antiproliferation testing assay. The ab139418-Propidium Iodide Flow Cytometry kit for cycle analysis (reader: BD FACS Calibur)^8 was used for cell cycle analysis. The Annexin V-FITC Apoptosis Detection Kit (Catalog#K101-25) was utilized for apoptosis studies.^9 All the studies were conducted according to the manufacturer’s instruction.

[3] = tested on: A431 (skin squamous) cancer cell line; assay: MTT antiproliferation, A431; type: cell-based, human; conditions: for IC50: Homo sapiens; for SI (selectivity index) A431: IC50 of RPE1/IC50 of cancer cell line
Summary of the method: (§1)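 Cells seeded 30000/well for 24 h, then treated for 72 h with triplicate wells per dose; 0.5% DMSO as negative control. MTT (2.5 mg ml^-1) added for 4 h at 37 °C, crystals dissolved in 10% SDS overnight. Surviving fraction = O.D. treated / O.D. control.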

[4] = tested on: RPE1 (normal human immortalized retinal pigment epithelial cell line); assay: MTT toxicity towards normal cells, RPE1; type: cell-based; conditions: RPE-1, read-out: IC50 (µM) ± SEM RPE1
[5] = tested on: HCT116 (colon) cancer cell line; assay: MTT antiproliferation, HCT116; type: cell-based, human; conditions: for IC50: Homo sapiens, HCT-116, 72 h, read-out: IC50 (µM) ± SEM HCT116; for SI (selectivity index) HCT116: IC50 of RPE1/IC50 of cancer cell line
Summary of the method: as §1

[6] = Vero-E6, 72 h, reduction of virus-induced CPE, read-out: IC50 (µM) SARS-CoV-2
[7] = log of observed IC50 in μM, read-out: Observed log(IC50, μM) (SARS-CoV-2) (converted)
[8] = A-431, 72 h, read-out: IC50 (µM) ± SEM A431
[9] = A-431, read-out: Observed log(IC50, μM) (A431) (converted)

Q: Which results are given for CCS(=O)(=O)N1C/C(=C\c2ccc(Cl)cc2)C(=O)C2(C1)C(c1ccc(Cl)cc1)CN(C)C21C(=O)Nc2ccc(Cl)cc21 (stereo not drawn) [Compound 6l, (E)-5-Chloro-5″-(4-chlorobenzylidene)-4′-(4-chlorophenyl)-1″-(ethylsulfonyl)-1′-methyldispiro[indoline-3,2′-pyrrolidine-3′,3″-piperidine]-2,4″-dione]?
A: IC50 [1, 6]: 31.4 µM; IC50 [1, 7]: 31.4 µM; SI = CC50/IC50 [1]: 15.1; Apoptosis (%) Early [2]: 14.39%; Apoptosis (%) Late [2]: 21.01%; Apoptosis (%) Total [2]: 38.41%; Necrosis [2]: 3.01%; IC50 [3, 8]: 3.69 ± 0.33 µM; IC50 [3, 9]: 3.69 µM; SI (selectivity index) A431 [3]: > 13.5; IC50 [4]: > 50 µM; IC50 [5]: 4.11 ± 0.41 µM; SI (selectivity index) HCT116 [5]: > 12.2

Q: Which IC50 [1, 6] does the source give for CN1CC(c2ccc(Br)cc2)C2(CN(S(C)(=O)=O)C/C(=C\c3ccc(Br)cc3)C2=O)C12C(=O)Nc1ccccc12 (stereo not drawn) [Compound 6m, (E)-5″-(4-Bromobenzylidene)-4′-(4-bromophenyl)-1′-methyl-1″-(methylsulfonyl)dispiro[indoline-3,2′-pyrrolidine-3′,3″-piperidine]-2,4″-dione] here?
A: 8.92 µM

Q: What about the IC50 [1, 7] of the same molecule?
A: 8.92 µM

Q: And the “SI = CC50/IC50” value [1]?
A: 17.9

Q: And the “Apoptosis (%) Early” value [2]?
A: 24.88%

Q: And the “Apoptosis (%) Late” value [2]?
A: 13.71%

Q: What about the “Apoptosis (%) Total” value [2] of the same molecule?
A: 42.55%

Q: What about the Necrosis [2] of the same molecule?
A: 3.96%

Q: And the IC50 [3, 8]?
A: 2.43 ± 0.18 µM

Q: And the IC50 [3, 9]?
A: 2.43 µM

Q: What about the “SI (selectivity index) A431” value [3] of the same molecule?
A: 6.1

Q: And the “efficacy, times more than the standard reference 5-fluorouracil (A431)” value ([3]; ratio of IC50 values)?
A: about 9.6 times

Q: What about the IC50 [4] of the same molecule?
A: 14.9 ± 1.61 µM

Q: And the IC50 [5]?
A: 3.24 ± 0.27 µM

Q: What about the “SI (selectivity index) HCT116” value [5] of the same molecule?
A: 4.6
